Assays:
[1] = test system: Intracellular ROS production; test: Real-time ROS production (DCF assay); assay type: cell-based; conditions: dose-independent, even at highly toxic MMS 80 μg/mL
Description: Intracellular ROS production was detected using DCFH-DA probe (Sigma) (Zanotto-Filho et al., 2010, Cancer Lett 288, 192-203). This reagent enters the cells and reacts predominantly with highly oxidizing species of ROS, such as hydroxyl radicals, hydroperoxides, and peroxynitrite, thus producing the fluorophore DCF. Briefly, cells were seeded in black-edge clear bottom 96-well plates. After reaching 70% confluence, medium was changed and cells were incubated with 20 μM DCFH-DA dissolved in medium containing 0.5% FBS. After 1 h pre-incubation to allow DCFH-DA uptake, treatments were added to its respective final concentrations and DCF fluorescence was monitored at 0.5, 1, 3, 8, 12, 16 and 24 h in a fluorescence reader (Ex/Em=485/532 nm). Hydrogen peroxide was used as a positive control and N-acetylcysteine (NAC), GSH-ethyl-ester (GSH-E) and Trolox were used as antioxidant standards. As a control, at the end of 24 h, cell viability was assessed and compared to wells in the absence of DCFH-DA.

Kc167 cells = test: Metabolomics of GSH metabolites in fly cells; assay type: cell-based, D. melanogaster; conditions: MMS 40 μg/mL
Description: The 2.4×10^6 Kc167 or 2×10^6 MEFs were seeded using complete growth medium on Day 0 in a T-175 cell culture flask and were allowed to grow for three days. After treatments with MMS (40 μg/mL), cells were harvested and centrifuged at 8 and 24 hours, and washed using ice-cold PBS. The cell numbers were adjusted to 90×10^6 (Kc167) or 24×10^6 (MEF) and provided as 100 μL of packed cell pellet for metabolic profiling. Metabolomic profiling and data analysis was provided through mView service performed by Metabolon Inc., Durham, N.C. Five biological replicates of each group were used for analysis at each time point. In addition, detailed changes in nucleotide pools were measured in a separate set of experiments. Nucleotide quantification and Metabolomics Pathway Enrichment Analyses were performed through MetaboAnalyst 2.0 (Xia et al., 2012, Nucleic Acids Res 40(Web Server issue), W127-33; Xia et al., 2009, Nucleic Acids Res 37(Web Server issue), W652-60).

[2] = test system: Intracellular glutathione levels; test: Glutathione assay; assay type: cell-based
Description: Intracellular glutathione levels were measured using the Glutathione (GSH/GSSG/Total) Fluorometric Assay Kit (BioVision Incorporated, Calif.), following manufacturer protocol. Briefly, 1×10^6 cells were scraped in PBS and centrifuged. Pellets were resuspended in 100 μL Glutathione assay buffer. 60 μL of this homogenate was mixed with PCA (perchloric acid) and centrifuged. Supernatant containing small molecules including GSH were neutralized with KOH and 3 fractions were collected and separated to analyze reduced (GSH), oxidized (GSSG) and total glutathione forms (GSH+GSSG) by reaction with OPA probe (o-phthalaldehyde) in the presence or absence of GSH quencher or reducing agents depending on the compound to be determined. Fluorescence was monitored at Ex/Em=340/420 nm for 40 min. Glutathione forms were calculated and normalized by protein (Bradford's assay).

[3] = test system: primary MEFs or breast cancer cells; test: Cell viability of MEFs and breast cancer cells with kinase inhibitors; assay type: cell-based, mouse, human
Description: The D. melanogaster embryonic cell line Kc167 was grown in Schneider medium (Invitrogen, Carlsbad, Calif.) supplemented with 10% heat-inactivated (56° C./30 min) fetal bovine serum (FBS), penicillin and streptomycin at 22° C. in a humidified incubator. Primary MEFs were obtained by harvesting 14.5-day C57BL/6J embryos as previously described (Ravi et al., 2009, PLoS Genet 5, e1000527). Briefly, fetal liver and head were removed and the remainder of the embryo was mechanically disaggregated in plating medium. A suspension of single-cells was plated in DMEM (plus 10% FBS, 100 U/mL penicillin and 100 μg/mL streptomycin). MEFs were grown for two passages before freezing aliquots. Aliquots were taken and expanded as needed for each experiment. MDA-MB231, SkBr3 and MCF-7 breast cancer cells lines were obtained from ATCC and grown in DMEM supplemented with 10% inactivated FBS plus antibiotics in a 37° C. humidified incubator at […] atmosphere. Cells were kept and treated in the exponential phase of growing (60-70% confluence). Pharmaceuticals Sorafenib (Santa Cruz Biotechnology), UO126, SP600125, SB239063, celecoxib, buthionine sulfoximine (BSO), cycloheximide (CHX), actinomycin D and BAY117082 (BAY), or antioxidants as N-Acetyl-Cysteine (NAC), glutathione ethyl-ester (GSH-E) and Trolox (all from Sigma-Aldrich, USA) were pre-incubated with cells for 6 to 8 h before treatments with MMS, temozolomide, CDDP (from Sigma-Aldrich, USA) or 4-hydroperoxycyclophosphamide (4-HC; from US Biological). DMSO concentrations were kept to a maximum of 0.1% for all experiments.
Cell viability was assessed using CellTiter-Glo Luminescent Viability assay (Promega) in 384 or 96-well plates white-border clear-bottom plated cells. For caspase-3/7 activity, Caspase-Glo 3/7 Assay kits were used (Promega). For caspase assays, the cells were seeded in 96-well plates and assayed directly after treatments. […] LDH release into culture medium was quantified by Cytotox-96 Non-Radioactive assay kit in agreement with instructions (Promega).

| Compound | increase in ROS [1] | increase in methyl-GSH (Kc167 cells) | glutathione metabolites ([2]; higher levels of MMS, as early as 8 h) | total GSH ([2]; lower levels of MMS (40 μg/mL)) | effect on viability at low concentrations ([3]; 1 to 5 μM, presence or absence of alkylating agents) | concentration with non-selective cytotoxicity ([3]; breast cell lines and MEFs, GSH depletion, aberrant ROS) | viability at higher levels ([3]; higher levels of sorafenib) |
| --- | --- | --- | --- | --- | --- | --- | --- |
| COS(C)(=O)=O [MMS, methyl-methanesulfonate] | 1.5 fold | 300 fold | depleted glutathione metabolites | able to keep or even increase their total GSH |  |  |  |
| CNC(=O)c1cc(Oc2ccc(NC(=O)Nc3ccc(Cl)c(C(F)(F)F)c3)cc2)ccn1 [sorafenib, 4-[4-[[4-chloro-3-(trifluoromethyl)phenyl]carbamoylamino]phenoxy]-N-methyl-pyridine-2-carboxamide] |  |  |  |  | did not affect MMS/4-HC-induced losses in cell viability | ≥ 20 µM | non-selective detriment to both cancer cells and MEFs |

— patent US10231958B2, “Methods and compositions for enhancing chemotherapy” (THE BOARD OF REGENTS OF THE UNIVERSITY OF TEXAS SYSTEM, priority 2015, dated 2019)
